Molecules are shown by their SMILES.

This passage reports Times observed results from US10168342B2, “Lipid probes and uses thereof” (THE SCRIPPS RESEARCH INSTITUTE, priority 2015, dated 2019).

The target in assay [1] is T1, AEA-DA-modified peptides in Neuro2a cells (Mus musculus, UniProt P62259).
T1 construct: endogenous in cells; host or cells: Neuro2a
Put plainly: isoTOP-ABPP mapping of AEA-DA-modified peptides in Neuro2a cells. Type of assay: cell-based. The following applies: AEA-DA-modified peptide YWHAE P62259 197-226, SEQ ID NO 121; probe 100 μM, 12 replicates.

In assay [2] the target is T2, AEA-DA-modified peptides in Neuro2a cells (Mus musculus, UniProt P97311).
T2 construct: endogenous in cells; host or cells: Neuro2a
T2 sequence (P97311 whole entry): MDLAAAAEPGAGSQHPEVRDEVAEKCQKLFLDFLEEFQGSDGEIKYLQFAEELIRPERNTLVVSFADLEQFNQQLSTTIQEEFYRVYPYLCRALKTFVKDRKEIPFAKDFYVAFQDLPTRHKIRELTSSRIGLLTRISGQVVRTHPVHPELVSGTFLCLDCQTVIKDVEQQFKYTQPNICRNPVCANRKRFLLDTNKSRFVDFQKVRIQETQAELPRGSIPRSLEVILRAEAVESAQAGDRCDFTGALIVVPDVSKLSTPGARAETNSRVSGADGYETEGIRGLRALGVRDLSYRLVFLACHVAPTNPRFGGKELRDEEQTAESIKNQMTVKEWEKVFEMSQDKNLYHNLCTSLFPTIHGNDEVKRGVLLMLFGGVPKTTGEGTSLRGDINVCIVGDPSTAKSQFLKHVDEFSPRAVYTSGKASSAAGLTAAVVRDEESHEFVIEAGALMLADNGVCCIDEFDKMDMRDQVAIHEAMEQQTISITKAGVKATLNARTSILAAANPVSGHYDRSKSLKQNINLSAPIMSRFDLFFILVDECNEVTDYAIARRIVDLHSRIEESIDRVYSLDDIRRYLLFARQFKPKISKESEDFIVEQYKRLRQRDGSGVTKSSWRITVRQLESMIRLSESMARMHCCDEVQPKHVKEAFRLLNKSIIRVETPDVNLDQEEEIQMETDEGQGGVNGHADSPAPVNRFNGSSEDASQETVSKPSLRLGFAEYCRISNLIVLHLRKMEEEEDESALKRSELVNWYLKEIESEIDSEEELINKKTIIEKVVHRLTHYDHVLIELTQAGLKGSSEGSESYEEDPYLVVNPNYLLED
The description is as above. Type of assay: cell-based. As to conditions: AEA-DA-modified peptide MCM6 P97311 59-86, SEQ ID NO 59; probe 100 μM, 12 replicates.

T1 sequence (P62259 whole entry): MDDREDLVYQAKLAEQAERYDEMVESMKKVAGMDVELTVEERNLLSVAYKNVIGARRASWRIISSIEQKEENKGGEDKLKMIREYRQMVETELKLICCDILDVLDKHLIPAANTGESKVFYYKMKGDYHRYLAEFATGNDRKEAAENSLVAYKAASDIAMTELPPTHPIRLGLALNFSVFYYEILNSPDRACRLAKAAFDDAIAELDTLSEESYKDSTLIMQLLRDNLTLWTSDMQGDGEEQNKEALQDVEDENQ

`C#CCCCC1(CC/C=C\C/C=C\C/C=C\CCCC(=O)NCCO)N=N1` [AEA-DA, (5Z,8Z,11Z)-N-(2-hydroxyethyl)-14-(3-(pent-4-yn-1-yl)-3H-diazirin-3-yl)tetradeca-5,8,11-trienamide]: the Times observed in assay [1] was determined as 8; in assay [2] it was 3.
